Measurements reported in patent US12673945B2, “3-((8-((1H-pyrazol-4-yl)amino)imidazo[1,2-a]pyridin-3-yl)ethinyl)-n-phenylbenzamide derivative, method for preparing same, and pharmaceutical composition containing same as active ingredient for prevention or treatment of cancer” (DAEGU-GYEONGBUK MEDICAL INNOVATION FOUNDATION, priority 2020, dated 2026).

Tests used:
Assay type in all cases: cell-based
[1] = tested on: Parental (Ba/F3); assay: Ba/F3 cell proliferation inhibition; settings: BaF3; 72 hours, Cell Counting Kit-8
Procedure, shortened: (§1)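 GI50 derived from CCK-8 absorbance at 450 nm (2 h development), expressed relative to DMSO vehicle. Cells (parental or T315I-Bcr-Abl Ba/F3, 1×10^4/well) received nine threefold-diluted concentrations, final 0 to 10 μM, for 72 h at 37 °C.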

[2] = tested on: T315I-Bcr-Abl (Ba/F3); assay: Ba/F3 cell proliferation inhibition; settings: BaF3; 72 hours, Cell Counting Kit-8
Procedure, shortened: as §1

[3] = tested on: KOPM28 cells; assay: human CML cell proliferation inhibition; settings: 72 hours, Cell Counting Kit-8
Procedure, shortened: (§2)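 Bcr-Abl TCCS and KOPM28 cells, plus their T315I-Bcr-Abl counterparts, are treated with compound (final 0–10 μM, 5-fold steps) for 72 h at 37 °C. Viability is measured by CCK-8 at 450 nm, and GI50 is computed as percent of DMSO control.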

[4] = tested on: T315I-KOPM28 cells; assay: human CML cell proliferation inhibition; settings: 72 hours, Cell Counting Kit-8
Procedure, shortened: as §2

[5] = tested on: T315I-TCCS cells; assay: human CML cell proliferation inhibition; settings: 72 hours, Cell Counting Kit-8
Procedure, shortened: as §2

[6] = tested on: TCCS cells; assay: human CML cell proliferation inhibition; settings: 72 hours, Cell Counting Kit-8
Procedure, shortened: as §2

| SMILES | GI50 [1] | GI50 [2] | GI50 [3] | GI50 [4] | GI50 [5] | GI50 [6] |
| --- | --- | --- | --- | --- | --- | --- |
| Cc1cc(F)c(C(=O)Nc2ccc(Cn3ccnc3)c(C(F)(F)F)c2)cc1C#Cc1cnc2c(Nc3cnn(C)c3)cccn12 [Example 63, N-(4-((1H-imidazol-1-yl)methyl)-3-(trifluoromethyl)phenyl)-2-fluoro-4-methyl-5-((8-((1-methyl-1H-pyrazol-4-yl)amino)imidazo[1,2-a]pyridin-3-yl)ethynyl)benzamide] | > 5 µM | 0.5 to 5 µM | < 0.01 µM | > 0.1 µM | > 0.1 µM | < 0.01 µM |
| Cc1cc(F)c(C(=O)Nc2ccc(Cn3cncn3)c(C(F)(F)F)c2)cc1C#Cc1cnc2c(Nc3cnn(C)c3)cccn12 [Example 64, N-(4-((1H-1,2,4-triazol-1-yl)methyl)-3-(trifluoromethyl)phenyl)-2-fluoro-4-methyl-5-((8-((1-methyl-1H-pyrazol-4-yl)amino)imidazo[1,2-a]pyridin-3-yl)ethynyl)benzamide] | > 5 µM | 0.05 to 0.5 µM | < 0.01 µM | > 0.1 µM | 0.1 µM | < 0.01 µM |
| Cc1cc(F)c(C(=O)Nc2ccc(Oc3ccncc3)c(C(F)(F)F)c2)cc1C#Cc1cnc2c(Nc3cnn(C)c3)cccn12 [Example 65, 2-fluoro-4-methyl-5-((8-((1-methyl-1H-pyrazol-4-yl)amino)imidazo[1,2-a]pyridin-3-yl)ethynyl)-N-(4-(pyridin-4-yloxy)-3-(trifluoromethyl)phenyl)benzamide] | > 5 µM | 0.05 to 0.5 µM | < 0.01 µM | 0.1 µM | 0.1 µM | < 0.01 µM |
| Cc1cc(F)c(C(=O)Nc2cc(CN3CCOCC3)cc(C(F)(F)F)c2)cc1C#Cc1cnc2c(Nc3cnn(C)c3)cccn12 [Example 66, 2-fluoro-4-methyl-5-((8-((1-methyl-1H-pyrazol-4-yl)amino)imidazo[1,2-a]pyridin-3-yl)ethynyl)-N-(3-(morpholinomethyl)-5-(trifluoromethyl)phenyl)benzamide] | > 5 µM | 0.05 to 0.5 µM | < 0.01 µM | > 0.1 µM | > 0.1 µM | < 0.01 µM |
| Cc1cc(F)c(C(=O)Nc2cc(CN3CCCN(C)CC3)cc(C(F)(F)F)c2)cc1C#Cc1cnc2c(Nc3cnn(C)c3)cccn12 [Example 67, 2-fluoro-4-methyl-N-(3-((4-methyl-1,4-diazepan-1-yl)methyl)-5-(trifluoromethyl)phenyl)-5-((8-((1-methyl-1H-pyrazol-4-yl)amino)imidazo[1,2-a]pyridin-3-yl)ethynyl)benzamide] | 0.5 to 5 µM | 0.05 to 0.5 µM | < 0.01 µM | 0.1 µM | 0.1 µM | < 0.01 µM |
| Cc1cc(F)c(C(=O)Nc2cc(CN3CCC(N(C)C)C3)cc(C(F)(F)F)c2)cc1C#Cc1cnc2c(Nc3cnn(C)c3)cccn12 (stereo not drawn) [Example 68, N-(3-((3-(dimethylamino)pyrrolidin-1-yl)methyl)-5-(trifluoromethyl)phenyl)-2-fluoro-4-methyl-5-((8-((1-methyl-1H-pyrazol-4-yl)amino)imidazo[1,2-a]pyridin-3-yl)ethynyl)benzamide] | 0.5 to 5 µM | < 0.05 µM | < 0.01 µM | 0.1 µM | 0.1 µM | < 0.01 µM |
| Cc1cc(F)c(C(=O)Nc2cc(CN3CCN(CCO)CC3)cc(C(F)(F)F)c2)cc1C#Cc1cnc2c(Nc3cnn(C)c3)cccn12 [Example 69, 2-fluoro-N-(3-((4-(2-hydroxyethyl)piperazin-1-yl)methyl)-5-(trifluoromethyl)phenyl)-4-methyl-5-((8-((1-methyl-1H-pyrazol-4-yl)amino)imidazo[1,2-a]pyridin-3-yl)ethynyl)benzamide] | > 5 µM | 0.05 to 0.5 µM | < 0.01 µM | > 0.1 µM | > 0.1 µM | 0.1 µM |
| Cc1cc(F)c(C(=O)Nc2cc(CN3CCN(S(C)(=O)=O)CC3)cc(C(F)(F)F)c2)cc1C#Cc1cnc2c(Nc3cnn(C)c3)cccn12 [Example 70, 2-fluoro-4-methyl-5-((8-((1-methyl-1H-pyrazol-4-yl)amino)imidazo[1,2-a]pyridin-3-yl)ethynyl)-N-(3-((4-(methylsulfonyl)piperazin-1-yl)methyl)-5-(trifluoromethyl)phenyl)benzamide] | > 5 µM | 0.05 to 0.5 µM | < 0.01 µM | > 0.1 µM | > 0.1 µM | < 0.01 µM |
| Cc1cc(F)c(C(=O)Nc2cc(CN3CCN(C)C(=O)C3)cc(C(F)(F)F)c2)cc1C#Cc1cnc2c(Nc3cnn(C)c3)cccn12 [Example 71, 2-fluoro-4-methyl-5-((8-((1-methyl-1H-pyrazol-4-yl)amino)imidazo[1,2-a]pyridin-3-yl)ethynyl)-N-(3-((4-methyl-3-oxopiperazin-1-yl)methyl)-5-(trifluoromethyl)phenyl)benzamide] | > 5 µM | 0.05 to 0.5 µM | < 0.01 µM | > 0.1 µM | 0.1 µM | < 0.01 µM |
| Cc1cc(F)c(C(=O)Nc2cc(CN3CC(OC(C)C)C3)cc(C(F)(F)F)c2)cc1C#Cc1cnc2c(Nc3cnn(C)c3)cccn12 [Example 72, 2-fluoro-N-(3-((3-isopropoxyazetidin-1-yl)methyl)-5-(trifluoromethyl)phenyl)-4-methyl-5-((8-((1-methyl-1H-pyrazol-4-yl)amino)imidazo[1,2-a]pyridin-3-yl)ethynyl)benzamide] | > 5 µM | 0.05 to 0.5 µM | < 0.01 µM | > 0.1 µM | > 0.1 µM | < 0.01 µM |
| Cc1cc(F)c(C(=O)Nc2cc(Cn3ccnc3)cc(C(F)(F)F)c2)cc1C#Cc1cnc2c(Nc3cnn(C)c3)cccn12 [Example 73, N-(3-((1H-imidazol-1-yl)methyl)-5-(trifluoromethyl)phenyl)-2-fluoro-4-methyl-5-((8-((1-methyl-1H-pyrazol-4-yl)amino)imidazo[1,2-a]pyridin-3-yl)ethynyl)benzamide] | > 5 µM | 0.05 to 0.5 µM | < 0.01 µM | 0.1 µM | 0.1 µM | < 0.01 µM |
| Cc1cc(F)c(C(=O)Nc2cc(Cn3cncn3)cc(C(F)(F)F)c2)cc1C#Cc1cnc2c(Nc3cnn(C)c3)cccn12 [Example 74, N-(3-((1H-1,2,4-triazol-1-yl)methyl)-5-(trifluoromethyl)phenyl)-2-fluoro-4-methyl-5-((8-((1-methyl-1H-pyrazol-4-yl)amino)imidazo[1,2-a]pyridin-3-yl)ethynyl)benzamide] | > 5 µM | < 0.05 µM | < 0.01 µM | 0.1 µM | 0.1 µM | < 0.01 µM |
| Cc1cn(-c2cc(NC(=O)c3cc(C#Cc4cnc5c(Nc6cn[nH]c6)cccn45)c(C)cc3F)cc(C(C)(C)C#N)c2)cn1 [Example 75, 5-((8-((1H-pyrazol-4-yl)amino)imidazo[1,2-a]pyridin-3-yl)ethynyl)-N-(3-(2-cyanopropan-2-yl)-5-(4-methyl-1H-imidazol-1-yl)phenyl)-2-fluoro-4-methylbenzamide] | > 5 µM | < 0.05 µM | < 0.01 µM | 0.1 µM | 0.1 µM | < 0.01 µM |
| Cc1cn(-c2cc(NC(=O)c3cc(C#Cc4cnc5c(Nc6cn[nH]c6)cccn45)c(C)cc3Cl)cc(C(C)(C)C#N)c2)cn1 [Example 76, 5-((8-((1H-pyrazol-4-yl)amino)imidazo[1,2-a]pyridin-3-yl)ethynyl)-2-chloro-N-(3-(2-cyanopropan-2-yl)-5-(4-methyl-1H-imidazol-1-yl)phenyl)-4-methylbenzamide] | > 5 µM | < 0.05 µM | < 0.01 µM | 0.1 µM | 0.1 µM | < 0.01 µM |
| Cc1cc(F)c(C(=O)Nc2cc(-c3cnn(C)c3)cc(C(C)(C)C#N)c2)cc1C#Cc1cnc2c(Nc3cn[nH]c3)cccn12 [Example 77, 5-((8-((1H-pyrazol-4-yl)amino)imidazo[1,2-a]pyridin-3-yl)ethynyl)-N-(3-(2-cyanopropan-2-yl)-5-(1-methyl-1H-pyrazol-4-yl)phenyl)-2-fluoro-4-methylbenzamide] | > 5 µM | 0.05 to 0.5 µM | < 0.01 µM | > 0.1 µM | 0.1 µM | < 0.01 µM |
| Cc1cc(F)c(C(=O)Nc2cc(-c3ccncc3)cc(C(C)(C)C#N)c2)cc1C#Cc1cnc2c(Nc3cn[nH]c3)cccn12 [Example 78, 5-((8-((1H-pyrazol-4-yl)amino)imidazo[1,2-a]pyridin-3-yl)ethynyl)-N-(3-(2-cyanopropan-2-yl)-5-(pyridin-4-yl)phenyl)-2-fluoro-4-methylbenzamide] | > 5 µM | 0.05 to 0.5 µM | 0.1 µM | > 0.1 µM | > 0.1 µM | < 0.01 µM |
| Cc1cc(F)c(C(=O)Nc2cc(-c3cccnc3)cc(C(C)(C)C#N)c2)cc1C#Cc1cnc2c(Nc3cn[nH]c3)cccn12 [Example 79, 5-((8-((1H-pyrazol-4-yl)amino)imidazo[1,2-a]pyridin-3-yl)ethynyl)-N-(3-(2-cyanopropan-2-yl)-5-(pyridin-3-yl)phenyl)-2-fluoro-4-methylbenzamide] | > 5 µM | 0.05 to 0.5 µM | < 0.01 µM | > 0.1 µM | 0.1 µM | < 0.01 µM |
